# In patent publication US12350250B2, “Aggrelytes for treating ocular conditions” (The Regents of the University of Colorado, a Body Corporate, priority 2022, dated 2025):
# Key:
# [1] = target: T1, αA-crystallin (αAC) (Homo sapiens, UniProt P02489); experiment: Relative protein acetylation capability on recombinant αAC; type: biochemical; settings: 500 μM acetylating agent, αAC 3 mg/mL, 24 hours, 37° C.
# T1 sequence (P02489 1-173): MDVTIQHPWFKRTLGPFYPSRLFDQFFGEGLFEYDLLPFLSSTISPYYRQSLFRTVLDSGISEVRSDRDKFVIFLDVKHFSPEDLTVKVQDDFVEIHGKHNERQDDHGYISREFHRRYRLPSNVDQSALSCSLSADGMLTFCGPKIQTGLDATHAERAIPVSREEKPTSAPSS
# Description: The relative ability of Aggrelyte-2 to acetylate lysine residues in proteins was investigated using αA-crystallin (αAC). Human recombinant αAC (3 mg/mL PBS) was incubated in 50 mM sodium phosphate buffer, pH 7.4, for 24 hours at 37° C. while shaking without or with 500 μM acetylating agent (Aggrelyte-2, acetyl-CoA, acetic anhydride, or aspirin), dialyzed against PBS for 24 hours at 4° C.
# [2] = system: WI proteins (human lens); experiment: Relationship between protein acetylation and solubility: WI proteins treated with acetic anhydride or Aggrelyte-2; type: biochemical
# Text: To determine whether protein acetylation alone contributed to lens protein solubility, the soluble protein levels in WI proteins treated with acetic anhydride and Aggrelyte-2 were compared.
# [3] = system: mouse lenses; experiment: Acetylated proteins in ex vivo treated mouse lenses (Western blot, Example 19); settings: 1 mM, 24 hours
# Description: The lenses from Example 18 were homogenized using N2-bubbled 50 mM phosphate buffer, pH 7.4 (0.4 mL per lens), in a hand-held motorized homogenizer. The homogenate was centrifuged at 20,000×g for 20 minutes at 4° C. The resulting supernatant was collected, and its protein content was measured using BCA Protein Assay Kit using BSA as the standard. The soluble protein was subjected to 12% SDS-PAGE under denaturing conditions and the proteins were electrophoretically transferred to a nitrocellulose membrane and blocked with 5% nonfat dry milk. The membrane was then incubated with a monoclonal antibody against N-acetyllysine (AcK antibody @ 1:5,000 dilution; Cell Signaling Technology Catalog #9681S) for 16 hours, followed by horseradish peroxidase (HRP)-conjugated goat anti-mouse IgG (1:5,000 dilution; Cell Signaling Technology Catalog #7076S) for 1 hour. Chemiluminescence was detected using the Enhanced Chemiluminescence Detection Kit. The membrane was stained with Ponceau-S to visualize the proteins and normalize acetyllysine (AcK)-bearing protein to total protein load.
# [4] = system: human lenses; experiment: Acetylated proteins in ex vivo treated human lenses (Example 23); settings: 250 μM, 48 hours
# Description: Each lens from Example 21 was decapsulated and homogenized in N2-bubbled 50 mM phosphate buffer, pH 7.4 (1.5 mL per lens), in a hand-held glass homogenizer. The sample was processed and evaluated for protein content as described in Example 19.
# [5] = system: mouse lenses; settings: 40 mM topical twice daily for four weeks, mice
# Description: A 40 mM solution of Aggrelyte-2A was prepared in a liquid formulation that consisted of benzalkonium chloride (0.001%), NaH2PO4·H2O (0.269%), Na2HPO4 (0.433%), hypromellose (0.2%), and NaCl (0.5%). Aggrelyte-2A in the formulation (5 μl) was applied to the right eye twice daily (8 AM and 4 PM) to unanesthetized animals for four weeks. The left eye received only the formulation (5 μl) (“Vehicle” or “Control”). After treatment, the animals were euthanized by CO2 asphyxiation. The eyes were enucleated, and the lenses were removed immediately by a posterior approach and placed in fresh PBS. The stiffness of the lenses was measured using a computer-controlled lens squeezer. The AcK-bearing protein levels of the lenses were measured by Western blotting. The protein-thiol content of the lenses was measured using a Thiol Quantification Assay Kit from Abcam, using reduced GSH as the standard.
# [6] = system: human lenses; experiment: Stiffness of ex vivo human lenses (Example 22); settings: 250 μM, 48 hours
# Description: To test the effects of Aggrelyte-2 and Aggrelyte-2A on human lenses (age: 47-67 years), lenses were incubated in media containing freshly dissolved aggrelyte (250 μM) for 48 hours, with aggrelyte replacement after 24 hours. One lens from each donor pair was treated with aggrelyte, while the other was used as the control. After incubation, lens stiffness was measured, as described above in Example 20.
# [7] = system: mouse lenses; experiment: Stiffness of ex vivo mouse lenses (Example 18); design: species or system mouse (C57BL/6J); settings: 1 mM, 24 hours, ex vivo mouse lenses (3-6 months old); not significant
# Description: In this example, the lenses were dissected from the eyes of mice (C57BL/6J, 3-6 months old, Jackson Laboratories, Stock No. 000664) by a posterior approach and incubated without (“Control”) or with Aggrelyte-2 or Aggrelyte-2A (1 mM) for 24 hours in serum-free and phenol-red-free MEM (297 mOsm) at 37° C. Lens stiffness was measured as in Example 10, except that the load was applied at 50 mg increments.
smiles,measurement,setting,value
CC(=O)Oc1ccccc1C(=O)O [aspirin],rank order of acetylating agents,[1],"followed by Aggrelyte-2, aspirin, and acetyl-CoA"
CC(=O)SCCNC(=O)CCNC(=O)[C@H](O)C(C)(C)COP(=O)(O)OP(=O)(O)OC[C@H]1O[C@@H](n2cnc3c(N)ncnc32)[C@H](O)[C@@H]1OP(=O)(O)O [acetyl-CoA],rank order of acetylating agents,[1],"followed by Aggrelyte-2, aspirin, and acetyl-CoA"
CC(=O)OC(C)=O [acetic anhydride],"acetylation of WI proteins, comparison",[2],better acetylating agent than Aggrelyte-2
same,"acetylating potency, fold higher than Aggrelyte-2",[1],~21 fold
same,rank order of acetylating agents,[1],most potent acetylating agent
"COC(=O)[C@H](CSC(C)=O)NC(=O)CC(C)(C)C [Aggrelyte-2A, methyl S-acetyl-N-(3,3,-dimethylbutanoyl)-L-cysteinate]","density of acetyl-bearing proteins, % increase compared to Aggrelyte-2",[3],at least 50%
same,"density of acetyl-bearing proteins, fold increase compared to untreated control lenses",[3],5 fold
same,increase in density of acetyl-bearing proteins compared to control lenses,[4],approximately 5%
same,increase in protein thiol content compared to vehicle-treated lenses,[5],approximately 8%
same,reduction of lens stiffness compared to vehicle-treated lenses,[5]; 200-mg load,approximately 12%
same,increase in density of AcK-bearing proteins compared to vehicle-treated lenses,[5]; Western blot,approximately 10%
same,reduction in stiffness at 400- and 500-mg loads,[5]; relative to 200-mg load result,similar
same,reduction of lens stiffness compared to vehicle-treated lenses,[6]; ex vivo human lenses (47-67 years),approximately 15%
same,significance of stiffness reduction at 2000-mg load,"[6]; ex vivo human lenses, 2000-mg load (p<0.05)",significant
same,reduction of lens stiffness,[7],approximately 20%
